Source: PMC12154458, “High-Throughput Screens of Repurposing Hub and DOS Chemical Libraries Reveal Compounds with Novel and Potent Inhibitory Activity Against the Essential Non-Neuronal Acetylcholinesterase of Schistosoma mansoni (SmTAChE)” (International Journal of Molecular Sciences, 2025)
Where a name gives a salt, the structure may show the parent alone. Read-outs that look alike come from different tables or passages of the source.

Experiments:
[1] = target: T1, rSmTAChE (Schistosoma mansoni, UniProt A0A3Q0KMM5); experiment: biochemical
T1 sequence (A0A3Q0KMM5 27-661 limits assumed): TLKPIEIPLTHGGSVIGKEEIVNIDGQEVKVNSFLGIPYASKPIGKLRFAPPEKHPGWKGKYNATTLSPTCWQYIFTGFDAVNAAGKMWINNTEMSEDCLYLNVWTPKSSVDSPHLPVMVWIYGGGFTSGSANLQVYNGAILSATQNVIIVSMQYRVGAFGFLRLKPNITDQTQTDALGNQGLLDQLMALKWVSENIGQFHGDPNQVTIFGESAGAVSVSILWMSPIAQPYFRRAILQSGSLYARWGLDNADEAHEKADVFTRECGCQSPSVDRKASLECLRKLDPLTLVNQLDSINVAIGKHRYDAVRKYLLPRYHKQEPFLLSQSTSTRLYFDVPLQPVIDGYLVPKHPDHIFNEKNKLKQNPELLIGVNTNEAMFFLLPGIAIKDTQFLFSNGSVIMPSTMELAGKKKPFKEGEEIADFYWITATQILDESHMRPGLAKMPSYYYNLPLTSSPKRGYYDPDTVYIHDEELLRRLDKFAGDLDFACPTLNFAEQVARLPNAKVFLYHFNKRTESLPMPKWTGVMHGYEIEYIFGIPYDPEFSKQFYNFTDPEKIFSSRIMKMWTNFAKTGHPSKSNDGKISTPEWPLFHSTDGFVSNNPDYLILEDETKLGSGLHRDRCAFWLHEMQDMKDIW

[2] = target: T1, rSmTAChE; assay type: biochemical
[3] = target: recombinant human acetylcholinesterase, rHsAChE (Homo sapiens, UniProt P22303); experiment: biochemical; settings: for inhibition of rHsAChE, result in words: dose–response, up to 40 µM
Chain of recombinant human acetylcholinesterase, rHsAChE (P22303 32-614): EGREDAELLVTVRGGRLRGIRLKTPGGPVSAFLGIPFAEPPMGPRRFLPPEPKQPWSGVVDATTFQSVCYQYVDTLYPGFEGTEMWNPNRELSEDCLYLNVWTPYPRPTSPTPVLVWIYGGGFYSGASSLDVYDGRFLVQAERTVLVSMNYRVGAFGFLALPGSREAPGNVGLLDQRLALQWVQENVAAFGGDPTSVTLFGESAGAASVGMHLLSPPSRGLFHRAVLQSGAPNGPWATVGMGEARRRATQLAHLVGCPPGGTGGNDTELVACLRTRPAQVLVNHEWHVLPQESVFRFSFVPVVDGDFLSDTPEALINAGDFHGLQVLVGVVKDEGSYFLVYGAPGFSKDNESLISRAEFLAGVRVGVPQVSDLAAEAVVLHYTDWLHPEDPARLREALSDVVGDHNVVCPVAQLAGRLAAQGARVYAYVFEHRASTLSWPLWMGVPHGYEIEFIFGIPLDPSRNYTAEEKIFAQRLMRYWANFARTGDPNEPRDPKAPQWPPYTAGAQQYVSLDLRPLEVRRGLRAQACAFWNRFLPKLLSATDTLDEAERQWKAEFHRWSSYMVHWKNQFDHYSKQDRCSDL

[4] = read-out: qAC50 (IC50), rSmTAChE
[5] = read-out: qAC50 (IC50), rHsAChE
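Throughout, for Inhibition (%) (Average): mostly 20 µM final but a few compounds at 5 or 10 µM.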
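Throughout, for Inhibition (%) Replicate A: mostly 20 µM final but a few compounds at 5 or 10 µM.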
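Throughout, for Inhibition (%) Replicate B: mostly 20 µM final but a few compounds at 5 or 10 µM.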

SMILES	Inhibition (%) (Average) [1]	Inhibition (%) Replicate A [1]	Inhibition (%) Replicate B [1]	Data Mode (curve class), rSmTAChE [2]	Data Mode (curve class), rHsAChE [3]	other results
CC(C)Oc1ccc(-c2nn([C@@H](C)c3oc4ccc(F)cc4c(=O)c3-c3cccc(F)c3)c3ncnc(N)c23)cc1F [BRD-K52579889-001-01-9]	65.60%	66.50%	64.70%	decreasing (weakly active)	inactive	IC50 [2, 4]: > 38 µM
COc1ccc(C#Cc2ccc3c(c2)O[C@H](CN(C)S(=O)(=O)c2ccccc2F)[C@H](C)CN([C@H](C)CO)S3(=O)=O)cc1 [BRD-K13781734-001-02-4]	66.73%	61.49%	71.97%			rSmTAChE Data Mode [2]: decreasing (weakly active); rHsAChE Data Mode [3]: inactive
O=C(O)C1(C(=O)O)CCC1.[NH2-].[NH2-].[Pt+2] [BRD-K90947825-001-02-7]	69.15%	70.08%	68.22%	decreasing	decreasing (weakly active)	IC50 [2, 4]: 35.4 µM; IC50 [3, 5]: > 38 µM
CCN(c1ccccc1)c1cc(=NC)n(C)c(C)n1 [ZD-7288, 4-ethylphenylamino-1,2-dimethyl-6-methylaminopyrimidinium chloride, reference compound]				decreasing		inhibition at 10 µM ([1]; read-out: HTS/rSmTAChE Inhibition (Ave, %)): 75%; SI (Hs/Sm) [2]: 46.87; fold greater potency/selectivity for SmTAChE vs. HsAChE (Selectivity Index) [2]: ~50 fold; IC50 ([3]; Table 1, Inactive = inactive at the maximum tested concentration (40 µM), read-out: IC50 (µM) rHsAChE): > 19.5 µM; Data Mode (curve class), rHsAChE ([3]; dose response analysis of Drug Repurposing Hub hits against rHsAChE): decreasing (weakly active); IC50 ([3]; read-out: IC50 for rHsAChE): ~20 µM
CC(=O)c1cc([N+](=O)[O-])c(Sc2cccc(Cl)c2Cl)s1 [BRD-K13606314-001-01-3]	73.95%	72.57%	75.33%	inactive	decreasing (weakly active)	IC50 [3, 5]: > 38 µM
CCc1c(C(=O)NCCc2ccc(N3CCCCC3)cc2)[nH]c2ccc(Cl)cc12 [BRD-K57597776-001-01-2]	61.28%	60.33%	62.24%	inactive	inactive	
COc1ccccc1-c1cccc(-c2nc(C(=O)NCc3ccncc3)cc3c2[C@@H](CCO)N([S@+]([O-])C(C)(C)C)C3)c1 [BRD-K32310489-001-03-4]	64.60%	65.31%	63.89%			rSmTAChE Data Mode [2]: decreasing (weakly active); rHsAChE Data Mode [3]: inactive
O=C(C[C@H]1C[C@H]2c3cc(NC(=O)NC4CCCC4)ccc3O[C@H]2[C@@H](CO)O1)NCc1ccccc1F [BRD-K64460391-001-01-9]	88.85%	89.69%	88.02%			rSmTAChE Data Mode [2]: decreasing (weakly active); rHsAChE Data Mode [3]: inactive
O=C(O)c1ccccc1Nc1ccc(CCc2ccc(Cl)c(Cl)c2)cc1 [BRD-K34657753-001-01-9]	82.51%	83.46%	81.56%	decreasing	decreasing	IC50 [2, 4]: 12.4 µM; IC50 [3, 5]: 8.55 µM
O=C(C[C@@H]1C[C@@H]2c3cc(NC(=O)NC4CCCC4)ccc3O[C@@H]2[C@H](CO)O1)NCc1ccc(Cl)cc1 [BRD-K38240817-001-01-4]	84.65%	85.52%	83.79%			rSmTAChE Data Mode [2]: decreasing (weakly active); rHsAChE Data Mode [3]: decreasing (weakly active)
C[C@H](Oc1cc(-c2cnn(C3CCNCC3)c2)cnc1N)c1c(Cl)ccc(F)c1Cl [BRD-K40308497-001-01-2]	86.27%	85.50%	87.03%			
COc1ccc(NC(=O)Nc2ccc3c(c2)[C@H]2C[C@@H](CC(=O)NCC(F)(F)F)O[C@@H](CO)[C@H]2O3)cc1 [BRD-K54729370-001-01-4]	90.84%	91.00%	90.69%			rSmTAChE Data Mode [2]: inactive; rHsAChE Data Mode [3]: inactive
CSc1cc2c(cc1C(F)(F)F)N(C(=O)Nc1cccnc1)CC2 [BRD-K14807180-001-02-5]	86.29%	87.94%	84.63%	inactive	inactive	
CCCCCCCC/C=C\CCCCCCCC(=O)NCCc1ccc(O)c(O)c1 [OLDA, reference compound]		93.41%	95.51%	decreasing	decreasing (weakly active)	rSmTAChE HTS Inhibition (Ave, %) ([1]; 20 µM): 94.46%; IC50 ([2]; read-out: IC50 (µM) rSmTAChE): 36.1 µM; SI (Sm/Hs) [3]: 2.67; IC50 ([3]; read-out: IC50 (µM) rHsAChE): > 13.5 µM
CCCCC/C=C\C/C=C\C/C=C\C/C=C\CCCC(=O)Nc1ccc(O)cc1 [BRD-K55462201-001-07-3]	74.15%	71.40%	76.90%	inactive	decreasing	IC50 [3, 5]: 22.4 µM
COc1ccc(C#Cc2ccc3c(c2)O[C@H](CN(C)S(=O)(=O)c2ccccc2F)[C@@H](C)CN([C@H](C)CO)S3(=O)=O)cc1 [BRD-K53241408-001-01-7]	74.07%	75.51%	72.63%			rSmTAChE Data Mode [2]: inactive; rHsAChE Data Mode [3]: inactive

SMILES	Inhibition (%) (Average) [1]	Inhibition (%) Replicate A [1]	Inhibition (%) Replicate B [1]	Data Mode (curve class), rSmTAChE [2]	Data Mode (curve class), rHsAChE [3]	other results
C[C@]12CC[C@@H]3c4ccc(O)cc4C[C@@H](CCCCCCCCC[S+]([O-])CCCC(F)(F)C(F)(F)F)[C@H]3[C@@H]1CC[C@@H]2O (stereo partly drawn) [BRD-A85667082-001-12-7]				decreasing (weakly active)	inactive	IC50 [2, 4]: > 38 µM
CC(C)Oc1ccc(-c2cnc3c(-c4ccnc5ccccc45)cnn3c2)cc1 [BRD-K39381259-001-02-8]	67.85%	64.38%	71.32%			
CC(C)Oc1ccc(-c2cnc3c(-c4ccnc5ccccc45)cnn3c2)cc1 [BRD-K39381259-001-01-0]				inactive	decreasing (weakly active)	IC50 [3, 5]: > 13.5 µM
C/C=C1\[C@H]2C=C(C)C[C@]1(N)c1ccc(=O)[nH]c1C2 [Huperzine A, reference compound]				decreasing		inhibition at 20 µM ([1]; read-out: rSmTAChE HTS Inhibition (Ave, %)): 64.1%
CCCCCCCCc1ccc(CCC(N)(CO)CO)cc1 [BRD-K88025533-003-03-3]	70.74%	73.25%	68.23%			
C[C@H](Oc1cc(-c2cnn(C3CCNCC3)c2)cnc1N)c1c(Cl)ccc(F)c1Cl [BRD-K40308497-001-02-0]				decreasing	decreasing	IC50 [2, 4]: 26.8 µM; IC50 [3, 5]: 21.2 µM
Nc1ccc(O)c(C(=O)O)c1 [Mesalazine, reference compound]				decreasing		IC50 (µM) rHsAChE [3]: Inactive; inhibition of rHsAChE, result in words [3]: no detectable inhibitory effect; inhibition of rHsAChE, result in words ([3]; listed as #19): no inhibition detected
CC1(C)CCC(C)(C)c2cc(C#Cc3ccc(C(=O)O)cc3)ccc21 [BRD-K81004638-001-01-7]				decreasing	decreasing	IC50 [2, 4]: 19.8 µM; IC50 [3, 5]: 14.5 µM
CNC(=O)Oc1ccc2c(c1)[C@]1(C)CCN(C)[C@@H]1N2C [Physostigmine sulfate, reference compound]				decreasing	decreasing	
CNC(=O)Oc1ccc2c(c1)[C@]1(C)CCN(C)[C@@H]1N2C [Physostigmine salicylate, reference compound]				decreasing	decreasing	
CCCCCCCCc1ccc(CCC(N)(CO)CO)cc1 [BRD-K88025533-003-04-1]				inactive	inactive	
C[C@]12CC[C@@H]3c4ccc(O)cc4C[C@@H](CCCCCCCCC[S+]([O-])CCCC(F)(F)C(F)(F)F)[C@H]3[C@@H]1CC[C@@H]2O (stereo partly drawn) [BRD-A85667082-001-10-1]	87.19%	87.84%	86.54%			
CC(C)(O)c1ccccc1CC[C@@H](SCC1(CC(=O)O)CC1)c1cccc(/C=C/c2ccc3ccc(Cl)cc3n2)c1 [BRD-K69470111-001-01-2]				decreasing (weakly active)	increasing (weakly active)	IC50 [2, 4]: > 38 µM; IC50 [3, 5]: > 38 µM
CC1(C)CCC(C)(C)c2cc(C#Cc3ccc(C(=O)O)cc3)ccc21 [BRD-K81004638-001-02-5]	66.58%	64.60%	68.56%			
CC(C)(O)c1ccccc1CC[C@@H](SCC1(CC(=O)O)CC1)c1cccc(/C=C/c2ccc3ccc(Cl)cc3n2)c1 [BRD-K69470111-236-09-7]	81.70%	81.35%	82.06%			
